The target of one assay is Substance-P receptor (Rattus norvegicus, UniProt P14600). Briefly: Inhibition of Tachykinin receptor 1 of rat forebrain tissue.
The species named for a further assay is Cavia porcellus. Briefly: pA2 was evaluated from schild analyses of the guinea pig ileum contractility data. The assay is classed as functional. To be noted: read-out: pA2 (converted).
In assay [1] the test system is Rattus norvegicus. Briefly: In vivo SP antagonist activity in rats using SP-induced salivation and paw edema assays. The format is functional.
Assay [2] relates to Rattus norvegicus. Briefly: cIn vivo SP antagonist activity in rats using SP-induced salivation and paw edema assays. The assay is classed as functional.

Substance-P receptor, sequence (P14600 whole entry): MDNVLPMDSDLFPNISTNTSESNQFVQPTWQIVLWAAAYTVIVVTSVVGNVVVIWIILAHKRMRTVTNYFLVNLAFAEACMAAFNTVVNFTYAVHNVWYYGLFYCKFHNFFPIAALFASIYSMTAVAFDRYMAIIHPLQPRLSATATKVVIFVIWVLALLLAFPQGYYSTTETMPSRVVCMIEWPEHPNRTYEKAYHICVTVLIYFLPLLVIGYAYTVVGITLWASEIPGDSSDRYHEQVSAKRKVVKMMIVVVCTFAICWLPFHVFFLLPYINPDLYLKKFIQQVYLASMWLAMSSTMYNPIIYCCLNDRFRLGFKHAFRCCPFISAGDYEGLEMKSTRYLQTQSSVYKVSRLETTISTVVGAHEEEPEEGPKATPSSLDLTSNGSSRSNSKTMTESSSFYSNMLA

In general, IC50 refers to the concentration that inhibits the measured activity by half. With `CCN1/C(=C\C=C2/CCC[n+]3c2n(CC)c2cc4ccccc4cc23)Sc2ccccc21`, the IC50 against Substance-P receptor stood at 1300 nM.
Compound `CCN1/C(=C\C=C2CC(C)[n+]3c2n(CC)c2cc4ccccc4cc23)Sc2ccccc21` (stereo not given) had an IC50 on Substance-P receptor of 180 nM.
As a reminder, the ED50 is the midpoint of the dose-response relation. Read a low ED50 as greater potency. In the case of `CCn1c(/C=C/C=C2\N(C)c3ccccc3C2(C)C)[n+](CC)c2cc3ccccc3cc21.[Cl-]`, in the assay filed under Cavia porcellus, the Kb was 35.5 nM. For the same compound, the IC50 against Substance-P receptor came to 390 nM. In addition, the 50% effect level in the assay with Rattus norvegicus [1] (ED50) was put at a dose of 0.48 mg/kg.
With `CCN1/C(=C\C=C\c2n(CC)c3cc4ccccc4cc3[n+]2CC)Oc2ccccc21`, the half-inhibitory concentration (IC50) against Substance-P receptor came to 310 nM.
In turn, `CCn1c(/C=C/C=C2\N(C)c3ccccc3C2(C)C)[n+](CCO)c2cc3ccccc3cc21` registered a concentration for half-maximal inhibition (IC50) on Substance-P receptor of 450 nM.
As for `CCn1c2[n+](c3cc4ccccc4cc31)CCC2=C/C=C1\N(C)c2ccccc2C1(C)C`, the IC50 on Substance-P receptor was determined as 790 nM.
In turn, `CCN1/C(=C\C=C2CC[n+]3c2n(CC)c2cc4ccccc4cc23)Oc2ccccc21` came in with a half-inhibitory concentration (IC50) at Substance-P receptor of 4200 nM.
Compound `CCN1/C(=C\C=C\c2n(CC)c3cc4ccccc4cc3[n+]2CC)Sc2ccccc21` gave a 50% inhibitory concentration (IC50) against Substance-P receptor of 320 nM.
Turning to `CCn1c2[n+](c3cc4ccccc4cc31)C(C)CC2=C/C=C1\N(C)c2ccc3ccccc3c2C1(C)C` (stereo not given), on Substance-P receptor, the IC50 was found to be 310 nM.
On to `CCn1c(/C=C/C=C2\N(C)c3ccccc3C2(C)C)[n+](CCOC(C)=O)c2cc3ccccc3cc21`, for which inhibition against Substance-P receptor was half-maximal at 410 nM (IC50).
As to `CCn1c(/C=C/C=C2\N(C)c3ccccc3C2(C)C)[n+](CC)c2nc3ccccc3nc21.[Cl-]`, the Kb in the assay filed under Cavia porcellus was 58.9 nM. The compound further returned an ED50 in the assay on Rattus norvegicus [2] of 1.73 mg/kg.
Turning to `CCN1/C(=C\C=C\c2n(CC)c3cc4ccccc4cc3[n+]2CC)C(C)(C)c2ccccc21`, half-maximal inhibition against Substance-P receptor (IC50) required 360 nM.

Source of the values: ChEMBL document CHEMBL1125424 (J Med Chem, 1992).
